Data reported in patent US9469650B2, “Melampomagnolide B derivatives” (BOARD OF TRUSTEES OF THE UNIVERSITY OF ARKANSAS, priority 2013, dated 2016).

Legend:
[1] = tested on: K-562; assay: panel of 60 human tumor cell lines, growth inhibition (Leukemia); conditions: K-562
[2] = tested on: MDA-MB-435; assay: panel of 60 human tumor cell lines, growth inhibition (Melanoma); conditions: MDA-MB-435
[3] = tested on: SF-268; assay: panel of 60 human tumor cell lines, growth inhibition (CNS Cancer); conditions: SF-268
[4] = tested on: SF-539; assay: as above; conditions: SF-539
[5] = tested on: COLO 205; assay: panel of 60 human tumor cell lines, growth inhibition (Colon Cancer); conditions: COLO 205
[6] = tested on: HCT-116; assay: as above; conditions: HCT-116
[7] = tested on: SW-620; assay: as above; conditions: SW-620
[8] = tested on: 786-0; assay: panel of 60 human tumor cell lines, growth inhibition (Renal Cancer); conditions: 786-0
[9] = tested on: ACHN; assay: as above
[10] = tested on: UO-31; assay: as above; conditions: UO-31
[11] = tested on: HS 578T; assay: panel of 60 human tumor cell lines, growth inhibition (Breast Cancer); conditions: HS 578T
[12] = tested on: BT-549; assay: as above; conditions: BT-549
[13] = tested on: T-47D; assay: as above; conditions: T-47D
[14] = tested on: IGROV1; assay: panel of 60 human tumor cell lines, growth inhibition (Ovarian Cancer); conditions: IGROVI
[15] = tested on: OVCAR-5; assay: as above; conditions: OVCAR-5
[16] = tested on: OVCAR-8; assay: as above; conditions: OVCAR-8
[17] = tested on: NCI/ADR-RES; assay: as above
[18] = tested on: NCI-H522; assay: panel of 60 human tumor cell lines, growth inhibition (Non-Small Cell Lung Cancer); conditions: NCI-H522

In the case of C=C1C(=O)O[C@H]2[C@H]1CC/C(COC(=O)N1CCC(F)(F)CC1)=C\CC[C@@]1(C)O[C@@H]21 [JVM 2-66], the GI50 [1] is reported as 3450 nM, the TGI [1] is reported as 3.61E−5 and the “Percent Growth” value ([1]; Log10 Concentration −4.0) is reported as −10%. The “Percent Growth” value ([1]; Log10 Concentration −5.0) was 13%, the “Percent Growth” value ([1]; Log10 Concentration −6.0) was 93% and the “Percent Growth” value ([1]; Log10 Concentration −7.0) was 95%. For the same compound, the “Percent Growth” value ([1]; Log10 Concentration −8.0) was 104%, the GI50 [2] was 464 nM and the TGI [2] was 1.89E−5. The “Percent Growth” value ([2]; Log10 Concentration −4.0) was −52%, the “Percent Growth” value ([2]; Log10 Concentration −5.0) was 20% and the “Percent Growth” value ([2]; Log10 Concentration −6.0) was 30%. The “Percent Growth” value ([2]; Log10 Concentration −7.0) was 91%, the “Percent Growth” value ([2]; Log10 Concentration −8.0) was 98% and the GI50 [3] was 10700 nM. For the same compound, the TGI [3] was 2.47E−5, the “Percent Growth” value ([3]; Log10 Concentration −4.0) was −84% and the “Percent Growth” value ([3]; Log10 Concentration −5.0) was 54%. For the same compound, the “Percent Growth” value ([3]; Log10 Concentration −6.0) was 95%, the “Percent Growth” value ([3]; Log10 Concentration −7.0) was 93% and the “Percent Growth” value ([3]; Log10 Concentration −8.0) was 95%. For the same compound, the GI50 [4] was 1980 nM, the TGI [4] was 459E−6 and the “Percent Growth” value ([4]; Log10 Concentration −4.0) was −88%. The “Percent Growth” value ([4]; Log10 Concentration −5.0) was −46%, the “Percent Growth” value ([4]; Log10 Concentration −6.0) was 90% and the “Percent Growth” value ([4]; Log10 Concentration −7.0) was 85%. For the same compound, the “Percent Growth” value ([4]; Log10 Concentration −8.0) was 96%, the GI50 [5] was 2060 nM and the TGI [5] was 4.17E−6. The “Percent Growth” value ([5]; Log10 Concentration −4.0) was −93%, the “Percent Growth” value ([5]; Log10 Concentration −5.0) was −62% and the “Percent Growth” value ([5]; Log10 Concentration −6.0) was 101%. For the same compound, the “Percent Growth” value ([5]; Log10 Concentration −7.0) was 96%, the “Percent Growth” value ([5]; Log10 Concentration −8.0) was 102% and the GI50 [6] was 1410 nM. For the same compound, the TGI [6] was 3.30E−6, the “Percent Growth” value ([6]; Log10 Concentration −4.0) was −100% and the “Percent Growth” value ([6]; Log10 Concentration −5.0) was −65%. The “Percent Growth” value ([6]; Log10 Concentration −6.0) was 70%, the “Percent Growth” value ([6]; Log10 Concentration −7.0) was 93% and the “Percent Growth” value ([6]; Log10 Concentration −8.0) was 99%. The GI50 [7] was 1460 nM, the TGI [7] was 4.37E−6 and the “Percent Growth” value ([7]; Log10 Concentration −4.0) was −86%. For the same compound, the “Percent Growth” value ([7]; Log10 Concentration −5.0) was −38%, the “Percent Growth” value ([7]; Log10 Concentration −6.0) was 67% and the “Percent Growth” value ([7]; Log10 Concentration −7.0) was 97%. For the same compound, the “Percent Growth” value ([7]; Log10 Concentration −8.0) was 99%, the GI50 [8] was 3670 nM and the TGI [8] was 1.50E−5. For the same compound, the “Percent Growth” value ([8]; Log10 Concentration −4.0) was −81%, the “Percent Growth” value ([8]; Log10 Concentration −5.0) was 17% and the “Percent Growth” value ([8]; Log10 Concentration −6.0) was 93%. The “Percent Growth” value ([8]; Log10 Concentration −7.0) was 91%, the “Percent Growth” value ([8]; Log10 Concentration −8.0) was 97% and the GI50 [9] was 1790 nM. For the same compound, the TGI [9] was 5.68E−6, the “Percent Growth” value ([9]; Log10 Concentration −4.0) was −83% and the “Percent Growth” value ([9]; Log10 Concentration −5.0) was −25%. The “Percent Growth” value ([9]; Log10 Concentration −6.0) was 75%, the “Percent Growth” value ([9]; Log10 Concentration −7.0) was 93% and the “Percent Growth” value ([9]; Log10 Concentration −8.0) was 103%. It also gave a CC50 ([9]; read-out: LC50) of 27400 nM, a GI50 [10] of 1990 nM and a TGI [10] of 5.44E−6. For the same compound, the “Percent Growth” value ([10]; Log10 Concentration −4.0) was −88%, the “Percent Growth” value ([10]; Log10 Concentration −5.0) was −30% and the “Percent Growth” value ([10]; Log10 Concentration −6.0) was 84%. The “Percent Growth” value ([10]; Log10 Concentration −7.0) was 86%, the “Percent Growth” value ([10]; Log10 Concentration −8.0) was 80% and the GI50 [11] was 13500 nM. For the same compound, the TGI [11] was 7.06E−5, the “Percent Growth” value ([11]; Log10 Concentration −4.0) was −10% and the “Percent Growth” value ([11]; Log10 Concentration −5.0) was 59%. For the same compound, the “Percent Growth” value ([11]; Log10 Concentration −6.0) was 89%, the “Percent Growth” value ([11]; Log10 Concentration −7.0) was 93% and the “Percent Growth” value ([11]; Log10 Concentration −8.0) was 93%. For the same compound, the GI50 [12] was 2690 nM, the TGI [12] was 8.54E−6 and the “Percent Growth” value ([12]; Log10 Concentration −4.0) was −99%. For the same compound, the “Percent Growth” value ([12]; Log10 Concentration −5.0) was −7%, the “Percent Growth” value ([12]; Log10 Concentration −6.0) was 93% and the “Percent Growth” value ([12]; Log10 Concentration −7.0) was 98%. For the same compound, the “Percent Growth” value ([12]; Log10 Concentration −8.0) was 100%, the GI50 [13] was 3070 nM and the TGI [13] was 1.64E−5. The “Percent Growth” value ([13]; Log10 Concentration −4.0) was −45%, the “Percent Growth” value ([13]; Log10 Concentration −5.0) was 13% and the “Percent Growth” value ([13]; Log10 Concentration −6.0) was 86%. The “Percent Growth” value ([13]; Log10 Concentration −7.0) was 84%, the “Percent Growth” value ([13]; Log10 Concentration −8.0) was 93% and the GI50 [14] was 2310 nM. The TGI [14] was 7.26E−6, the “Percent Growth” value ([14]; Log10 Concentration −4.0) was −60% and the “Percent Growth” value ([14]; Log10 Concentration −5.0) was −14%. The “Percent Growth” value ([14]; Log10 Concentration −6.0) was 87%, the “Percent Growth” value ([14]; Log10 Concentration −7.0) was 106% and the “Percent Growth” value ([14]; Log10 Concentration −8.0) was 107%. For the same compound, the GI50 [15] was 4250 nM, the TGI [15] was 1.60E−5 and the “Percent Growth” value ([15]; Log10 Concentration −4.0) was −83%. For the same compound, the “Percent Growth” value ([15]; Log10 Concentration −5.0) was 21%, the “Percent Growth” value ([15]; Log10 Concentration −6.0) was 99% and the “Percent Growth” value ([15]; Log10 Concentration −7.0) was 90%. For the same compound, the “Percent Growth” value ([15]; Log10 Concentration −8.0) was 96%, the GI50 [16] was 2830 nM and the TGI [16] was 1.01E−5. For the same compound, the “Percent Growth” value ([16]; Log10 Concentration −4.0) was −86%, the “Percent Growth” value ([16]; Log10 Concentration −6.0) was 91% and the “Percent Growth” value ([16]; Log10 Concentration −7.0) was 96%. The “Percent Growth” value ([16]; Log10 Concentration −8.0) was 98%, the GI50 [17] was 5220 nM and the TGI [17] was 2.08E−5. For the same compound, the “Percent Growth” value ([17]; Log10 Concentration −4.0) was −65%, the “Percent Growth” value ([17]; Log10 Concentration −5.0) was 30% and the “Percent Growth” value ([17]; Log10 Concentration −6.0) was 99%. For the same compound, the “Percent Growth” value ([17]; Log10 Concentration −7.0) was 99%, the “Percent Growth” value ([17]; Log10 Concentration −8.0) was 100% and the GI50 [18] was 1250 nM. The TGI [18] was 2.75E−6, the “Percent Growth” value ([18]; Log10 Concentration −4.0) was −80% and the “Percent Growth” value ([18]; Log10 Concentration −5.0) was −81%. For the same compound, the “Percent Growth” value ([18]; Log10 Concentration −6.0) was 64%, the “Percent Growth” value ([18]; Log10 Concentration −7.0) was 92% and the “Percent Growth” value ([18]; Log10 Concentration −8.0) was 91%.
